{
  "source": "PubChem BioAssay AID1259410",
  "about": "(Chemical Carcinogenesis Research Information System (CCRIS), 2018)",
  "origin": "cited, not measured here",
  "tested_on": "rodent tumor promotion studies, tumor incidence",
  "assay": "CCRIS tumor promotion studies",
  "data": [
    {"smiles": "CCCCCCCCCC(=O)O[C@@]12C[C@@H](C)[C@@]3(O)[C@@H](C=C(CO)C[C@]4(O)C(=O)C(C)=C[C@@H]34)[C@@H]1C2(C)C", "values": [
      {"measurement": "outcome", "setting": "Carcinogen: 7,12-DIMETHYLBENZ[A]ANTHRACENE, 57-97-6, Doses [Carcinogen]: 100 NMOL ONCE, Doses [Promoter]: 0, 40 NMOL 2/WK FOR 48 WK (STUDY DURATION: 48 WK), Route [Carcinogen]: DERMAL, Route [Promoter]: DERMAL, Species: MOUSE, Strain/Sex: NMRI", "result": "skin: tumor"}
    ]},
    {"smiles": "C#C[C@]1(O)CC[C@H]2[C@@H]3CCc4cc(OC)ccc4[C@H]3CC[C@@]21C", "values": [
      {"measurement": "outcome", "setting": "Carcinogen: DIETHYLNITROSAMINE, 55-18-5, Doses [Carcinogen]: 20 MG/KG IN 0.85% SALINE ONCE PRECEDED 24 HR BY 2/3 PARTIAL HEPATECTOMY, Doses [Promoter]: 0, 0.1, 0.5 PPM IN DIET FOR 12 MO BEGINNING 24 HR POST CARCINOGEN (STUDY DURATION: 12 MO), Doses [Promoter]: 0, 0.1, 0.5 PPM IN DIET FOR 12 MO BEGINNING 24 HR POST CARCINOGEN (STUDY DURATION: 12 MO), Route [Carcinogen]: INTRAPERITONEAL, Route [Promoter]: ORAL, Species: RAT, Strain/Sex: CD-1/FEMALE", "result": "liver: hepatocellular carcinoma"}
    ]},
    {"smiles": "Oc1cc(O)c2c(c1)O[C@H](c1ccc(O)c(O)c1)[C@@H](O)C2", "values": [
      {"measurement": "outcome", "setting": "Carcinogen: N-METHYL-N'-NITRO-N-NITROSOGUANIDINE, 70-25-7, Doses [Carcinogen]: 150 MG/KG BW ONCE, Doses [Promoter]: 0, 0.8% IN DIET FOR 51 D BEGINNING 1 WK POST CARCINOGEN DOSE (STUDY DURATION: 52 WK), Route [Carcinogen]: GAVAGE, Route [Promoter]: ORAL, Species: RAT, Strain/Sex: F344/MALE", "result": "forestomach: carcinoma; glandular stomach: adenocarcinoma"}
    ]},
    {"smiles": "Cc1cccc(C)c1N", "values": [
      {"measurement": "outcome", "setting": "Carcinogen: N-BIS(2-HYDROXYPROPYL)NITROSAMINE) [53609-64-6], Doses [Carcinogen]: 2400 MG/KG BW ONCE (STUDY DURATION: 53 WK), Doses [Promoter]: 3000 PPM IN DIET FOR 52 WK BEGINNING 1 WK POST LAST CARCINOGEN DOSE (STUDY DURATION: 53 WK), Route [Carcinogen]: SUBCUTANEOUS, Route [Promoter]: ORAL, Species: RAT, Strain/Sex: F344/MALE", "result": "nasal cavity: carcinoma"}
    ]},
    {"smiles": "Clc1cccc(-c2ccc(Cl)c(Cl)c2Cl)c1Cl", "values": [
      {"measurement": "outcome", "setting": "Carcinogen: 4-(METHYLNITROSAMINO)-1-(3-PYRIDYL)-1-BUTANONE, 64091-91-4, Doses [Carcinogen]: 50 MG/KG ON D 4 OF LIFE, Doses [Promoter]: 500 MG/KG ONCE ON D 56 OF LIFE (STUDY DURATION: 52 WK), Route [Carcinogen]: INTRAPERITONEAL, Route [Promoter]: INTRAGASTRIC, Species: MOUSE, Strain/Sex: SWISS/FEMALE", "result": "lung: tumor"},
      {"measurement": "outcome", "setting": "Carcinogen: 4-(METHYLNITROSAMINO)-1-(3-PYRIDYL)-1-BUTANONE, 64091-91-4, Doses [Carcinogen]: 100 MG/KG (0.5 MMOL) IN 0.9% STERILE SALINE ON DAYS 15, 17, AND 19 OF GESTATION, Doses [Promoter]: 0, 500 MG/KG IN OLIVE OIL ON POSTNATAL DAY 56 (STUDY DURATION: 72 WK), Route [Carcinogen]: TRANSPLACENTAL, Route [Promoter]: GAVAGE, Species: MOUSE, Strain/Sex: SWISS/MALE", "result": "liver: hepatocellular adenoma or carcinoma"},
      {"measurement": "outcome", "setting": "Carcinogen: 4-(METHYLNITROSAMINO)-1-(3-PYRIDYL)-1-BUTANONE, 64091-91-4, Doses [Carcinogen]: 100 MG/KG IN 0.9% SALINE ON GESTATION DAYS 15, 17 AND 19, Doses [Promoter]: 500 MG/KG ONCE ON D 56 OF LIFE TO OFFSPRING OF CARCINOGEN-TREATED MOTHERS (STUDY DURATION: 52 WK), Route [Carcinogen]: INTRAPERITONEAL, Route [Promoter]: INTRAGASTRIC, Species: MOUSE, Strain/Sex: SWISS/MALE", "result": "lung: tumor"},
      {"measurement": "outcome", "setting": "Carcinogen: DIETHYLNITROSAMINE, 55-18-5, Doses [Carcinogen]: 90 MG/KG BW ONCE, Doses [Promoter]: 0, 100 PPM IN DIET FOR 20 WK BEGINNING 3 WK POST CARCINOGEN DOSE (STUDY DURATION: 47 WK), Route [Carcinogen]: INTRAPERITONEAL, Route [Promoter]: ORAL, Species: MOUSE, Strain/Sex: C57BL/MALE", "result": "liver: tumor"},
      {"measurement": "outcome", "setting": "Carcinogen: DIETHYLNITROSAMINE, 55-18-5, Doses [Carcinogen]: 1100 PPM IN DIET FOR 1 YR, Doses [Promoter]: 0, 100 PPM IN DIET FOR 1 YR (STUDY DURATION: 1 YR), Route [Carcinogen]: ORAL, Route [Promoter]: ORAL, Species: FISH, Strain/Sex: RAINBOW TROUT/MALE, FEMALE", "result": "liver: hepatocellular carcinoma"},
      {"measurement": "outcome", "setting": "Carcinogen: DIISOPROPANOLNITROSAMINE [53609-64-6], Doses [Carcinogen]: SINGLE DOSE OF 2.5 G/KG BW, Doses [Promoter]: 100 PPM IN DIET BEGINNING 1 WK AFTER DIPN TREATMENT FOR 19 WKS (STUDY DURATION: 20 WKS), Route [Carcinogen]: SUBCUTANEOUS INJECTION, Route [Promoter]: DIET, Species: RAT, Strain/Sex: SPRAGUE-DAWLEY/MALE", "result": "thyroid: carcinoma"},
      {"measurement": "outcome", "setting": "Carcinogen: N-NITROSODIETHYLAMINE, 55-18-5, Doses [Carcinogen]: 90 MG/KG BW ONCE, Doses [Promoter]: 0, 175, 350 PPM IN DIET FOR 53 WK BEGINNING 2 WK POST CARCINOGEN DOSE (STUDY DURATION: 55 WK), Doses [Promoter]: 0, 175, 350 PPM IN DIET FOR 53 WK BEGINNING 2 WK POST CARCINOGEN DOSE (STUDY DURATION: 55 WK), Route [Carcinogen]: INTRAPERITONEAL, Route [Promoter]: ORAL, Species: MOUSE, Strain/Sex: D2B6F1/MALE", "result": "liver: hepatocellular adenoma, hepatocellular carcinoma"},
      {"measurement": "outcome", "setting": "Carcinogen: N-NITROSODIMETHYLAMINE, 62-75-9, Doses [Carcinogen]: 5 MG/KG IN SALINE ONCE AT 4 DAYS OF AGE, Doses [Promoter]: 0, 250 MG/KG IN OLIVE OIL ONCE AT 8 DAYS OF AGE (STUDY DURATION: 28 WK), Route [Carcinogen]: INTRAPERITONEAL, Route [Promoter]: GAVAGE, Species: MOUSE, Strain/Sex: SWISS/MALE", "result": "lung: tumor"},
      {"measurement": "outcome", "setting": "Carcinogen: N-NITROSODIMETHYLAMINE, 62-75-9, Doses [Carcinogen]: 5 MG/KG IN SALINE ONCE AT 4 DAYS OF AGE, Doses [Promoter]: 0, 250 MG/KG IN OLIVE OIL ONCE AT 8 DAYS OF AGE (STUDY DURATION: 52 WK), Route [Carcinogen]: INTRAPERITONEAL, Route [Promoter]: GAVAGE, Species: MOUSE, Strain/Sex: SWISS/MALE", "result": "lung: tumor; liver: tumor"},
      {"measurement": "outcome", "setting": "Carcinogen: N-NITROSODIMETHYLAMINE, 62-75-9, Doses [Carcinogen]: 5 MG/KG ON D 4 OF LIFE, Doses [Promoter]: 500 MG/KG ONCE ON D 56 OF LIFE (STUDY DURATION: 52 WK), Route [Carcinogen]: INTRAPERITONEAL, Route [Promoter]: INTRAGASTRIC, Species: MOUSE, Strain/Sex: SWISS/MALE", "result": "lung: tumor; liver: tumor"},
      {"measurement": "outcome", "setting": "Carcinogen: N-NITROSODIMETHYLAMINE, 62-75-9, Doses [Carcinogen]: 10 MG/KG IN SALINE ON GESTATION D 19, Doses [Promoter]: 500 MG/KG ONCE ON D 56 OF LIFE TO OFFSPRING OF CARCINOGEN-TREATED MOTHERS (STUDY DURATION: 52 WK), Route [Carcinogen]: INTRAPERITONEAL, Route [Promoter]: INTRAGASTRIC, Species: MOUSE, Strain/Sex: SWISS/MALE", "result": "lung: tumor"}
    ]},
    {"smiles": "C=C(CC(=O)OC)C(=O)OC", "values": [
      {"measurement": "outcome", "setting": "Carcinogen: N-METHYLNITROSOUREA, 684-93-5, Doses [Carcinogen]: 100 PPM IN DRINKING WATER FOR 15 WK, Doses [Promoter]: 0, 0.5% IN DRINKING WATER FOR 37 WK BEGINNING POST CARCINOGEN TREATMENT (STUDY DURATION: 52 WK), Route [Carcinogen]: ORAL, Route [Promoter]: ORAL, Species: RAT, Strain/Sex: F344/MALE", "result": "glandular stomach: adenoma, carcinoma"}
    ]},
    {"smiles": "O=C(O)C(Cl)(Cl)Cl", "values": [
      {"measurement": "outcome", "setting": "Carcinogen: N-METHYL-N-NITROSOUREA, 684-93-5, Doses [Carcinogen]: 25 MG/KG IN STERILE SALINE ONCE, Doses [Promoter]: 0, 25 MMOL/L IN DRINKING WATER FOR 44 WK BEGINNING 2 WK POST CARCINOGEN DOSE (STUDY DURATION: 46 WK), Route [Carcinogen]: INTRAPERITONEAL, Route [Promoter]: ORAL, Species: MOUSE, Strain/Sex: B6C3F1/FEMALE", "result": "liver: adenoma"},
      {"measurement": "outcome", "setting": "Carcinogen: N-METHYL-N-NITROSOUREA, 684-93-5, Doses [Carcinogen]: 25 MG/KG ONCE AT 15 D OF AGE, Doses [Promoter]: 0, 20 NMOL/L IN DRINKING WATER FOR 31 WK BEGINNING AT 7 WK OF AGE (STUDY DURATION: 31 WK), Route [Carcinogen]: INTRAPERITONEAL, Route [Promoter]: ORAL, Species: MOUSE, Strain/Sex: B6C3F1/FEMALE", "result": "liver: adenoma"},
      {"measurement": "outcome", "setting": "Carcinogen: N-METHYL-N-NITROSOUREA, 684-93-5, Doses [Carcinogen]: 25 MG/KG ONCE AT 15 D OF AGE, Doses [Promoter]: 0, 20 NMOL/L IN DRINKING WATER FOR 31 WK BEGINNING AT 7 WK OF AGE (STUDY DURATION: 52 WK), Route [Carcinogen]: INTRAPERITONEAL, Route [Promoter]: ORAL, Species: MOUSE, Strain/Sex: B6C3F1/FEMALE", "result": "liver: adenoma, carcinoma"},
      {"measurement": "outcome", "setting": "Carcinogen: N-METHYL-N-NITROSOUREA, 684-93-5, Doses [Carcinogen]: 25 MMG/KG ONCE AT 15 D OF AGE, Doses [Promoter]: 0, 6.67, 20 NMOL/L IN DRINKING WATER FOR 52 WK BEGINNING AT 7 WK OF AGE (STUDY DURATION: 52 WK), Doses [Promoter]: 0, 6.67, 20 NMOL/L IN DRINKING WATER FOR 52 WK BEGINNING AT 7 WK OF AGE (STUDY DURATION: 52 WK), Route [Carcinogen]: INTRAPERITONEAL, Route [Promoter]: ORAL, Species: MOUSE, Strain/Sex: B6C3F1/FEMALE", "result": "liver: adenoma, carcinoma"}
    ]},
    {"smiles": "CCCCCCCCCCCC(=O)O", "values": [
      {"measurement": "outcome", "setting": "Carcinogen: 7,12-DIMETHYLBENZ(A)ANTHRACENE, Doses [Carcinogen]: TOP, Route [Carcinogen]: DERMAL, Route [Promoter]: DERMAL, Species: MOUSE, Strain/Sex: MALE,FEMALE", "result": "integumentary system (skin)"}
    ]},
    {"smiles": "CCCCCCCCCC1(CCCCCC(=O)OC2C(C)C3(O)C(C=C(CO)CC4(O)C(=O)C(C)=CC43)C3C(C)(C)C23OC(C)=O)OCC(C)(C)N1[O]", "note": "(configuration not stated)", "values": [
      {"measurement": "outcome", "setting": "Carcinogen: 7,12-DIMETHYLBENZ[A]ANTHRACENE, 57-97-6, Doses [Carcinogen]: 100 NMOL ONCE, Doses [Promoter]: 0, 5 NMOL 2/WK FOR 24 WK BEGINNING 1 WK POST CARCINOGEN DOSE (STUDY DURATION: 25 WK), Route [Carcinogen]: DERMAL, Route [Promoter]: DERMAL, Species: MOUSE, Strain/Sex: NMRI/FEMALE", "result": "skin: tumor"}
    ]}
  ]
}
